Laboratory results: patent US10214519B2, “Phosphatidylinositol 3-kinase inhibitors” (Gilead Sciences, Inc., priority 2016, dated 2019)

Molecular target: PI3Kβ (Homo sapiens (Human), UniProt P42338)
Assay: PI3K isoform TR-FRET enzymatic assay (PI3Kβ)
Assay type: biochemical
Details: 2× Km ATP, 30 minutes at 25° C.
Protocol: The compounds of formula (I) were characterized for their enzymatic activity against the PI3K isoforms. The activities were measured using a time-resolved fluorescence resonance energy transfer (TR-FRET) assay. TR-FRET monitored the formation of 3,4,5-inositol triphosphate molecule that competed with fluorescently labeled PIP3 for binding to the GRP-1 pleckstrin homology domain protein.
Class I PI3K isoforms were expressed and purified as heterodimeric recombinant proteins. All assay reagents and buffers for the TR-FRET assay were purchased from Millipore. […] The compounds were added to the assay solution and incubated for 30 minutes at 25° C. The reactions were terminated with a final concentration of 10 mM EDTA, 10 nM labeled-PIP3, and 35 nM Europium labeled GRP-1 detector protein before reading TR-FRET on an Envision plate reader (Ex: 340 nm; Em: 615/665 nm; 100 μs delay and 500 μs read window).
The results were normalized based on positive (1 μM wortmanin) and negative (DMSO) controls, and the IC50 values for PI3K α, β, δ, and γ were calculated from the fit of the dose-response curves to a four-parameter equation.

PI3Kβ, sequence (P42338 whole entry, canonical isoform): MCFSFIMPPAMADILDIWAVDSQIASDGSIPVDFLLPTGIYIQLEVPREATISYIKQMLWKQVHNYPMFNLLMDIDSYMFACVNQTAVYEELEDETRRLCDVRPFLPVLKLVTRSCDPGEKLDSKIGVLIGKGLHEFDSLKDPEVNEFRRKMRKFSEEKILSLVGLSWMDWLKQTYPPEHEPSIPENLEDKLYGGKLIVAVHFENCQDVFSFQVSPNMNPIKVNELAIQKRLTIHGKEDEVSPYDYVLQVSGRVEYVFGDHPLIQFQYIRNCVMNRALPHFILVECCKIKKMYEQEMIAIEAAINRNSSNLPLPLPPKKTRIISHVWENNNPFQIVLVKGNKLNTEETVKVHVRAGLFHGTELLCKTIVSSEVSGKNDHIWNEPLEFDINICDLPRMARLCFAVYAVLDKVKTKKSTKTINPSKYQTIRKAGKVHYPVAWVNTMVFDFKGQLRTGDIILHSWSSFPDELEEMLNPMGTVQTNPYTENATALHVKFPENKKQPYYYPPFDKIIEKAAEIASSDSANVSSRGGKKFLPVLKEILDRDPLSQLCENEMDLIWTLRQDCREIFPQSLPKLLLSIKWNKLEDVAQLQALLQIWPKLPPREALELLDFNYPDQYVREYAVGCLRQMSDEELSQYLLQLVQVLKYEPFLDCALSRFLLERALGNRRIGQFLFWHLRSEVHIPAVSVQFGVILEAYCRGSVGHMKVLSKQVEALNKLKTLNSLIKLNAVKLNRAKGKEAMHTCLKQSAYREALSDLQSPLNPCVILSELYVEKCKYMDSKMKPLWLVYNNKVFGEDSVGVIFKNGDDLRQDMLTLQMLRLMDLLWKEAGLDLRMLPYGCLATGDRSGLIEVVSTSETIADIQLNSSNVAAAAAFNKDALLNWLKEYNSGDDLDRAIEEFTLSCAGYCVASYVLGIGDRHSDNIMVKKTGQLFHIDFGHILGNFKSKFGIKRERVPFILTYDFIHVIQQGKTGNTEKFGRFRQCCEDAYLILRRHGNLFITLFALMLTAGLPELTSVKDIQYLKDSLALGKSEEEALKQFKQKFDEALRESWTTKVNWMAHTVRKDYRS
PI3Kβ, sequence (P27986 whole entry partner, canonical isoform): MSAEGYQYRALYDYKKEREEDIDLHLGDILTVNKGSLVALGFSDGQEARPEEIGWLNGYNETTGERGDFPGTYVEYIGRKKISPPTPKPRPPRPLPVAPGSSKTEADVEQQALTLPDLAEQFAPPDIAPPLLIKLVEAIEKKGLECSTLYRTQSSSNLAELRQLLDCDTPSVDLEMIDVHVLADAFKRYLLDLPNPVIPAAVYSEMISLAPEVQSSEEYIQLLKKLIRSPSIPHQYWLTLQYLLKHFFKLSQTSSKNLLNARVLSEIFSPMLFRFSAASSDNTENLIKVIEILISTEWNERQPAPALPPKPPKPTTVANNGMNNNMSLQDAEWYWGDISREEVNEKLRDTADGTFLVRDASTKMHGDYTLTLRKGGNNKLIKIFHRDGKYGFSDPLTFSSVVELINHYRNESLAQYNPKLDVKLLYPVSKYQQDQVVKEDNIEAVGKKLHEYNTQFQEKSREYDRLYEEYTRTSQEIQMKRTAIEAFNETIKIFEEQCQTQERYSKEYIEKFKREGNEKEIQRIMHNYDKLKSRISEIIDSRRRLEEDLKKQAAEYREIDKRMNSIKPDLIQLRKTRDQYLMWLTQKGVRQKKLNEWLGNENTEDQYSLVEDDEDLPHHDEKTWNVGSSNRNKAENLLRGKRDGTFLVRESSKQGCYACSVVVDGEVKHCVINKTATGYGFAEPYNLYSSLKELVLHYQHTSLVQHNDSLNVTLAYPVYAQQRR

Compound	IC50 [nM]
Fc1ccc(F)c2c(-n3c(C4CC4)nc4c(-c5cnc(Cl)[nH]5)cc(N5CCOCC5)cc43)ccnc12 (atropisomer, axis not shown) [Compound 342, 4-[7-(2-chloro-1H-imidazol-5-yl)-2-cyclopropyl-3-(5,8-difluoroquinolin-4-yl)benzimidazol-5-yl]morpholine]	> 10000
CCc1nc2c(-c3cnc(Cl)[nH]3)cc(N3CCOCC3)cc2n1-c1ccnc2c(F)ccc(F)c12 (atropisomer, axis not shown) [Compound 346, 4-[7-(2-chloro-1H-imidazol-5-yl)-3-(5,8-difluoroquinolin-4-yl)-2-ethylbenzimidazol-5-yl]morpholine]	10000
CCc1nc2c(-c3cnc(Cl)[nH]3)cc(N3CCOCC3)cc2n1-c1ccnc2c(F)ccc(F)c12 (atropisomer, axis not shown) [Compound 347, 4-[7-(2-chloro-1H-imidazol-5-yl)-3-(5,8-difluoroquinolin-4-yl)-2-ethylbenzimidazol-5-yl]morpholine]	7
CCc1nc2c(-c3nnc(C)[nH]3)cc(N3CCOCC3)cc2n1-c1c(Cl)cnc2c(Cl)cccc12 (atropisomer, axis not shown) [Compound 348, 4-[3-(3,8-dichloroquinolin-4-yl)-2-ethyl-7-(5-methyl-4H-1,2,4-triazol-3-yl)benzimidazol-5-yl]morpholine]	13
CCc1nc2c(-c3nnc(C)[nH]3)cc(N3CCOCC3)cc2n1-c1c(Cl)cnc2c(Cl)cccc12 (atropisomer, axis not shown) [Compound 349, 4-[3-(3,8-dichloroquinolin-4-yl)-2-ethyl-7-(5-methyl-4H-1,2,4-triazol-3-yl)benzimidazol-5-yl]morpholine]	439
Cc1nnc(-c2cc(N3CCOCC3)cc3c2nc(C)n3-c2ccnc3c(F)ccc(F)c23)[nH]1 (atropisomer, axis not shown) [Compound 350, (S)-4-(1-(5,8-difluoroquinolin-4-yl)-2-methyl-4-(5-methyl-4H-1,2,4-triazol-3-yl)-1H-benzo[d]imidazol-6-yl)morpholine]	10
Cc1nnc(-c2cc(N3CCOCC3)cc3c2nc(C)n3-c2ccnc3c(F)ccc(F)c23)[nH]1 (atropisomer, axis not shown) [Compound 351, (R)-4-(1-(5,8-difluoroquinolin-4-yl)-2-methyl-4-(5-methyl-4H-1,2,4-triazol-3-yl)-1H-benzo[d]imidazol-6-yl)morpholine]	460
Cc1nc2c(-c3nnc[nH]3)cc(N3CCOCC3)cc2n1-c1ccnc2c(F)c(F)ccc12 (atropisomer, axis not shown) [Compound 352, 4-[3-(7,8-difluoroquinolin-4-yl)-2-methyl-7-(4H-1,2,4-triazol-3-yl)benzimidazol-5-yl]morpholine]	7
Cc1nc2c(-c3nnc[nH]3)cc(N3CCOCC3)cc2n1-c1ccnc2c(F)c(F)ccc12 (atropisomer, axis not shown) [Compound 353, 4-[3-(7,8-difluoroquinolin-4-yl)-2-methyl-7-(4H-1,2,4-triazol-3-yl)benzimidazol-5-yl]morpholine]	270
CCCc1nc2c(-c3nnc[nH]3)cc(N3CCOCC3)cc2n1-c1ccnc2c(F)cccc12 (atropisomer, axis not shown) [Compound 354, 4-[3-(8-fluoroquinolin-4-yl)-2-propyl-7-(4H-1,2,4-triazol-3-yl)benzimidazol-5-yl]morpholine]	8
CCCc1nc2c(-c3nnc[nH]3)cc(N3CCOCC3)cc2n1-c1ccnc2c(F)cccc12 (atropisomer, axis not shown) [Compound 355, 4-[3-(8-fluoroquinolin-4-yl)-2-propyl-7-(4H-1,2,4-triazol-3-yl)benzimidazol-5-yl]morpholine]	2500
CCCc1nc2c(-c3ncco3)cc(N3CCOCC3)cc2n1-c1ccnc2c(F)ccc(F)c12 (atropisomer, axis not shown) [Compound 357, 4-[3-(5,8-difluoroquinolin-4-yl)-7(1,3-oxazol-2-yl)-2-propylbenzimidazol-5-yl]morpholine]	5
Cc1nc2c(-c3nnc(Cl)[nH]3)cc(N3CCOCC3)cc2n1-c1ccnc2c(Cl)cccc12 (atropisomer, axis not shown) [Compound 359, 4-[3-(8-chloroquinolin-4-yl)-7-(5-chloro-4H-1,2,4-triazol-3-yl)-2-methylbenzimidazol-5-yl]morpholine]	1200
Cc1nc2c(-c3nnc[nH]3)cc(N3CCOCC3)cc2n1-c1ccnc2c(Cl)cccc12 (atropisomer, axis not shown) [Compound 361, 4-[3-(8-chloroquinolin-4-yl)-2-methyl-7-(4H-1,2,4-triazol-3-yl)benzimidazol-5-yl]morpholine]	2
Cc1cccc2nccc(-n3c(C)nc4c(-c5nnc[nH]5)cc(N5CCOCC5)cc43)c12 (atropisomer, axis not shown) [Compound 362, 4-[2-methyl-3-(5-methylquinolin-4-yl)-7-(4H-1,2,4-triazol-3-yl)benzimidazol-5-yl]morpholine]	28
Cc1nnc(-c2cc(N3CCOCC3)cc3c2nc(C)n3-c2c(Cl)cnc3c(Cl)cccc23)[nH]1 (atropisomer, axis not shown) [Compound 367, 4-(1-(3,8-dichloroquinolin-4-yl)-2-methyl-4-(5-methyl-4H-1,2,4-triazol-3-yl)-1H-benzo[d]imidazol-6-yl)morpholine]	5600
CCCc1nc2c(-c3ccn[nH]3)cc(N3CCOCC3)cc2n1-c1ccnc2c(F)ccc(F)c12 (atropisomer, axis not shown) [Compound 369, 4-(1-(5,8-difluoroquinolin-4-yl)-2-propyl-4-(1H-pyrazol-5-yl)-1H-benzo[d]imidazol-6-yl)morpholine]	> 10000

More lines, now with the values ahead:

IC50 [nM]	Compound
5	Fc1ccc(F)c2c(-n3c(C4CC4)nc4c(-c5cnc(Cl)[nH]5)cc(N5CCOCC5)cc43)ccnc12 (atropisomer, axis not shown) [Compound 343, 4-[7-(2-chloro-1H-imidazol-5-yl)-2-cyclopropyl-3-(5,8-difluoroquinolin-4-yl)benzimidazol-5-yl]morpholine]
5	Cc1nc2c(-c3nnc[nH]3)cc(N3CCOCC3)cc2n1-c1ccnc2c(F)ccc(Cl)c12 (atropisomer, axis not shown) [Compound 344, 4-[3-(5-chloro-8-fluoroquinolin-4-yl)-2-methyl-7-(4H-1,2,4-triazol-3-yl)benzimidazol-5-yl]morpholine]
4460	Cc1nc2c(-c3nnc[nH]3)cc(N3CCOCC3)cc2n1-c1ccnc2c(F)ccc(Cl)c12 (atropisomer, axis not shown) [Compound 345, 4-[3-(5-chloro-8-fluoroquinolin-4-yl)-2-methyl-7-(4H-1,2,4-triazol-3-yl)benzimidazol-5-yl]morpholine]
> 10000	CCCc1nc2c(-c3ncco3)cc(N3CCOCC3)cc2n1-c1ccnc2c(F)ccc(F)c12 (atropisomer, axis not shown) [Compound 356, 4-[3-(5,8-difluoroquinolin-4-yl)-7-(1,3-oxazol-2-yl)-2-propylbenzimidazol-5-yl]morpholine]
10	Cc1nc2c(-c3nnc(Cl)[nH]3)cc(N3CCOCC3)cc2n1-c1ccnc2c(Cl)cccc12 (atropisomer, axis not shown) [Compound 358, 4-[3-(8-chloroquinolin-4-yl)-7-(5-chloro-4H-1,2,4-triazol-3-yl)-2-methylbenzimidazol-5-yl]morpholine]
2800	Cc1nc2c(-c3nnc[nH]3)cc(N3CCOCC3)cc2n1-c1ccnc2c(Cl)cccc12 (atropisomer, axis not shown) [Compound 360, 4-[3-(8-chloroquinolin-4-yl)-2-methyl-7-(4H-1,2,4-triazol-3-yl)benzimidazol-5-yl]morpholine]
8000	Cc1cccc2nccc(-n3c(C)nc4c(-c5nnc[nH]5)cc(N5CCOCC5)cc43)c12 (atropisomer, axis not shown) [Compound 363, 4-[2-methyl-3-(5-methylquinolin-4-yl)-7-(4H-1,2,4-triazol-3-yl)benzimidazol-5-yl]morpholine]
25	CCc1nc2c(-c3nnc[nH]3)cc(N3CCOCC3)cc2n1-c1c(C)cnc2c(C#N)cccc12 (atropisomer, axis not shown) [Compound 364, 4-(2-ethyl-6-morpholino-4-(4H-1,2,4-triazol-3-yl)-1H-benzo[d]imidazol-1-yl)-3-methylquinoline-8-carbonitrile]
9100	CCc1nc2c(-c3nnc[nH]3)cc(N3CCOCC3)cc2n1-c1c(C)cnc2c(C#N)cccc12 (atropisomer, axis not shown) [Compound 365, 4-(2-ethyl-6-morpholino-4-(4H-1,2,4-triazol-3-yl)-1H-benzo[d]imidazol-1-yl)-3-methylquinoline-8-carbonitrile]
17	Cc1nnc(-c2cc(N3CCOCC3)cc3c2nc(C)n3-c2c(Cl)cnc3c(Cl)cccc23)[nH]1 (atropisomer, axis not shown) [Compound 366, 4-(1-(3,8-dichloroquinolin-4-yl)-2-methyl-4-(5-methyl-4H-1,2,4-triazol-3-yl)-1H-benzo[d]imidazol-6-yl)morpholine]
18	CCCc1nc2c(-c3ccn[nH]3)cc(N3CCOCC3)cc2n1-c1ccnc2c(F)ccc(F)c12 (atropisomer, axis not shown) [Compound 368, 4-(1-(5,8-difluoroquinolin-4-yl)-2-propyl-4-(1H-pyrazol-5-yl)-1H-benzo[d]imidazol-6-yl)morpholine]
